Laboratory results: US12728173B2, “Heptamethine cyanine near-infrared fluorescent dye, preparation method therefor and use thereof” (NANJING NUOYUAN MEDICAL DEVICES CO., LTD, priority 2024, dated 2026)

Tests used:
[1] = Subcutaneous HepG2 tumor-bearing mouse models for in vivo imaging; conditions: tail vein, 0.5 mg/kg
Experimental: Subcutaneous HepG2 Tumor-Bearing Mouse Models (Human-Derived Liver Cancer Cells) for In Vivo Imaging
Test samples: the heptamethine cyanine near-infrared fluorescent dyes provided by Examples 1-4, and the heptamethine cyanine near-infrared fluorescent dyes provided by Comparative Examples 1-3.
Testing method: The subcutaneous HepG2 tumor-bearing mouse models were subjected to tail vein administration of the above samples (0.5 mg/kg, 100 μL of glucose injection), respectively. Indocyanine green (0.5 mg/kg, 100 μL of glucose injection) was taken as a control. After the administration, fluorescence imaging was performed using a surgical fluorescence imaging system (NANJING NUOYUAN MEDICAL DEVICES CO., LTD, 10B), at 0 h (before administration), 6 h, 12 h, 24 h, and 48 h in sequence.

tumor tissues = conditions: prior art CN111196896A; cited from earlier work

**Q.** With CC1(C)C(/C=C/C2=C(Cl)C(=C/C=C3/N(CCCS(=O)(=O)O)c4ccccc4C3(C)C)/CCC2)=[N+](CCCS(=O)(=O)O)c2ccc(S(=O)(=O)O)cc21 [Comparative Example 1] as the molecule, how does the “hepatic accumulation and metabolism” value [1] read?
**A.** hepatic accumulation and non-metabolism

**Q.** What about the hepatic accumulation (tumor tissues) of the same molecule?
**A.** deficiency of hepatic accumulation

**Q.** What about the tumor retention (tumor tissues) of the same molecule?
**A.** exceeding 48 h

**Q.** And the “tumor targeting capability compared with ICG” value (tumor tissues)?
**A.** stronger
